Reference: patent US5143920A, “Substituted 4-aminoquinoline derivatives as gastric secretion inhibitors” (SmithKline Beckman Intercredit B.V., priority 1988, dated 1992)

Target: T1, H^+ K^+ ATPase (Sus scrofa, UniProt P19156)
T1 construct: Lyophilised gastric vesicles were prepared from pig fundic mucosa; from tissue; host or cells: pig fundic mucosa (lyophilised gastric vesicles)
Test: K^+ -stimulated ATPase activity in lyophilised gastric vesicles (H^+ K^+ ATPase Activity)
Format: biochemical
Conditions: inhibition of K^+ -stimulated ATPase activity, lyophilised gastric vesicles from pig fundic mucosa, 37° C., pH 7.0, 1 mM KCl, 2 mM Na2 ATP, 30 minutes
Procedure: The effects of a single high concentration ([…]) of a compound of structure (I) on K^+ -stimulated ATPase activity in lyophilised gastric vesicles was determined. Preferred compounds of structure (I) were also tested over a range of concentrations to determine IC50 values.
Lyophilised gastric vesicles were prepared from pig fundic mucosa after the method of Keeling et. al. (Biochem. Pharmacol, 34, 2967, 1985).
K^+ -stimulated ATPAse activity was determined at 37° C. in the presence of the following: 10 mM Pipes/Tris buffer pH 7.0, 2 mM MgSO4, 1 mM KCl, 2 mM Na2 ATP and […] lyophilised gastric vesicles. After incubation for 30 minutes, the inorganic phosphate hydrolysed from ATP was determined by the method of Yoda and Hokin (Biochem. Biophys, Res. Commun. 40, 880, 1970).
Compounds of structure (I) were dissolved in dimethylsulphoxide which up to the highest concentration used had no effect on K^+ -stimulated ATPase activity.
The effect of the highest concentration of each compound of structure (I) on the recovery of a standard amount of inorganic phosphate was also determined.

T1 sequence (P19156 2-1034 limits assumed): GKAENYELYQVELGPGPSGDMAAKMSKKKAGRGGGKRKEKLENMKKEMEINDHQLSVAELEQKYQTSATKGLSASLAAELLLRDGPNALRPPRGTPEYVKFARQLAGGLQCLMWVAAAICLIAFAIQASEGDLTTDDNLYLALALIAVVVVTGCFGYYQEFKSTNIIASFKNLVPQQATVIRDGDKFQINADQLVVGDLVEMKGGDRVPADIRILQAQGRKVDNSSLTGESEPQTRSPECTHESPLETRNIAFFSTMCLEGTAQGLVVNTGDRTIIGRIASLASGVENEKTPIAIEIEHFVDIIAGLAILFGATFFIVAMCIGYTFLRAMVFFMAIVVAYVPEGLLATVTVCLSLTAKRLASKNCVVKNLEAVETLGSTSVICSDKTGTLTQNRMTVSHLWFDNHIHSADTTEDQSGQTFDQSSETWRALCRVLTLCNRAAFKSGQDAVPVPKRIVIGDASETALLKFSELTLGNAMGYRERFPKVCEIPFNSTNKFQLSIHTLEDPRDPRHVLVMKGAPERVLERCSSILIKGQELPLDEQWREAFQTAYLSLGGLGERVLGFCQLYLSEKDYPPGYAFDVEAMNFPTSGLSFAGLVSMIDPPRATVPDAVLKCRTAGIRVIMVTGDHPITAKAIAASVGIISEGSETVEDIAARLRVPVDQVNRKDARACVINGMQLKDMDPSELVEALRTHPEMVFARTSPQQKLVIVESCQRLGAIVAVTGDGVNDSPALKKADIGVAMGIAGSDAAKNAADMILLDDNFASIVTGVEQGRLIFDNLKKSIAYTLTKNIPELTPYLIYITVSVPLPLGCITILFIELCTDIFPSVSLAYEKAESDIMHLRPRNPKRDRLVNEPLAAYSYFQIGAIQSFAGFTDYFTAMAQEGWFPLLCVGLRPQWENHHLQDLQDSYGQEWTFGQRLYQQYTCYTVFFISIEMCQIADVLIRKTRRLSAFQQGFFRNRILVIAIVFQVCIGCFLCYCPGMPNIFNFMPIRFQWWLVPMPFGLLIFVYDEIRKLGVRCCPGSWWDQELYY
T1 sequence (P18434 whole entry partner): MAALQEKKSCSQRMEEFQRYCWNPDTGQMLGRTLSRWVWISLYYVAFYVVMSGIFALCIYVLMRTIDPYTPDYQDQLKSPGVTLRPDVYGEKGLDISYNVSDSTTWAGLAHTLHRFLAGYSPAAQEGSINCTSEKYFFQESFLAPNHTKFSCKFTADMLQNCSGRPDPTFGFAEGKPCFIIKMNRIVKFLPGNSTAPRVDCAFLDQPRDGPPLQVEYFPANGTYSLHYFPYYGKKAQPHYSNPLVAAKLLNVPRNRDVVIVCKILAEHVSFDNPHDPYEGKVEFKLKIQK

IC50	SMILES
80 nM	CCOC(=O)c1cnc2c(OC)cccc2c1Nc1ccc(O)cc1C [Compound 9, Ethyl 8-methoxy-4-(4-hydroxy-2-methylphenylamino)-quinoline-3-carboxylate]
160 nM	COc1cccc2c(Nc3ccc(O)cc3C)c(C(=O)C(C)C)cnc12 [Compound 12, 3-isobutyryl-4-(4-hydroxy-2-methylphenylamino)-8-methoxyquinoline]
70 nM	CCCC(=O)c1cnc2ccc(O)cc2c1Nc1ccc(O)cc1C [Compound 16, 3-butyryl-4-(4-hydroxy-2-methylphenylamino)-6-hydroxyquinoline]
1300 nM	CCCC(=O)c1cnc2c(OC)cc(O)cc2c1Nc1ccc(O)cc1C [Compound 17, 3-butyryl-4-(4-hydroxy-2-methylphenylamino)-6-hydroxy-8-methoxyquinoline]
